Data on one compound can be found in patent US20040253292A1, “MR-signal emitting coatings” (Wisconsin Alumni Research Foundation, priority 2003, published 2004).

This data set is described as follows: Diffusion of a fluorescent probe in swollen gelatin gel (FRAP). Format: physicochemical. The settings on record: coating thickness 60 μm; diffusion coefficient 9×10^ m^2s^−1. An excerpt:
To assess the stability of DTPA[Gd(III)] in the gelatin coating, the diffusion of a fluorescence probe in gelatin was studied by the technique of fluorescence recovery after photobleaching (FRAP). The instrument and data analysis scheme are described in Kim, S. H. and Yu, H., J. Phys. Chem. 1992, 96, 4034, which is hereby fully incorporated by reference. Fluorescein was used as the fluorescence probe due, in part, to its molecular size being roughly the same as that of DTPA[Gd(III)].
The focus of the study was to examine the possible retardation effects of gelatin concentration and cross-link density on the diffusion, which was determined at room temperature, i.e., below the gel point of gelatin. The diffusion of fluorescein probe slows down with the increase of gelatin concentration. The diffusion coefficient decreases from 1.5×10^−10 to 9×10^−12 m^2s^−1 when the concentration of gelatin increases from 9% to 40%. […] Accordingly, the probe diffusion is more likely controlled by the concentration of gelatin rather than the cross-link density. On the other hand, the cross-link density may determine the swelling ratio of gelatin, i.e., the concentration of gelatin in aqueous solution. […]

Take `O=C(O)CN(CCN(CC(=O)O)CC(=O)O)CCN(CC(=O)O)CC(=O)O` [DTPA, diethylenetriaminepentaacetic acid]: the “time to diffuse out of the gelatin coating” value is reported as “about 67 seconds”.
